Test results from PubChem BioAssay (NCI).
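In this assay, cells in 96-well plates receive the compound at five concentrations for 48 hours. Endpoints are linearly interpolated between the surrounding concentrations. TGI marks complete inhibition of growth.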

Tests used:
Assay in all cases: growth of human tumour cells (NCI), 48 h
786-0 renal = system: 786-0 renal
A549 NSCLC = system: A549 NSCLC
ACHN renal = system: ACHN renal
CCRF-CEM leukemia = system: CCRF-CEM leukemia
COLO 205 colon = system: COLO 205 colon
DMS 114 small cell lung = system: DMS 114 small cell lung
DMS 273 small cell lung = system: DMS 273 small cell lung
EKVX NSCLC = system: EKVX NSCLC
HCC-2998 colon = system: HCC-2998 colon
HCT-116 colon = system: HCT-116 colon
HCT-15 colon = system: HCT-15 colon
HL-60(TB) leukemia = system: HL-60(TB) leukemia
HOP-62 NSCLC = system: HOP-62 NSCLC
HT29 colon = system: HT29 colon
IGROV1 ovarian = system: IGROV1 ovarian
K-562 leukemia = system: K-562 leukemia
KM12 colon = system: KM12 colon
KM20L2 colon = system: KM20L2 colon
LOX IMVI melanoma = system: LOX IMVI melanoma
LXFL 529 NSCLC = system: LXFL 529 NSCLC
M14 melanoma = system: M14 melanoma
M19-MEL melanoma = system: M19-MEL melanoma
MALME-3M melanoma = system: MALME-3M melanoma
MOLT-4 leukemia = system: MOLT-4 leukemia
NCI-H226 lung = system: NCI-H226 lung
NCI-H23 lung = system: NCI-H23 lung
NCI-H460 lung = system: NCI-H460 lung
NCI-H522 lung = system: NCI-H522 lung
OVCAR-3 ovarian = system: OVCAR-3 ovarian
OVCAR-8 ovarian = system: OVCAR-8 ovarian
RPMI-8226 leukemia = system: RPMI-8226 leukemia
SF-268 CNS = system: SF-268 CNS
SF-295 CNS = system: SF-295 CNS
SF-539 CNS = system: SF-539 CNS
SK-MEL-28 melanoma = system: SK-MEL-28 melanoma
SK-MEL-5 melanoma = system: SK-MEL-5 melanoma
SK-OV-3 ovarian = system: SK-OV-3 ovarian
SN12C renal = system: SN12C renal
SNB-19 CNS = system: SNB-19 CNS
SR leukemia = system: SR leukemia
SW-620 colon = system: SW-620 colon
TK-10 renal = system: TK-10 renal
U251 CNS = system: U251 CNS
UACC-257 melanoma = system: UACC-257 melanoma
UACC-62 melanoma = system: UACC-62 melanoma
UO-31 renal = system: UO-31 renal
XF 498 CNS = system: XF 498 CNS
A498 renal = system: A498 renal
BT-549 breast = system: BT-549 breast
DU-145 prostate = system: DU-145 prostate
HOP-92 NSCLC = system: HOP-92 NSCLC
HS 578T breast = system: HS 578T breast
MCF7 breast = system: MCF7 breast
MDA-MB-231 breast = system: MDA-MB-231 breast
MDA-MB-435 = system: MDA-MB-435
MDA-N = system: MDA-N
NCI/ADR-RES ovarian = system: NCI/ADR-RES ovarian
OVCAR-4 ovarian = system: OVCAR-4 ovarian
OVCAR-5 ovarian = system: OVCAR-5 ovarian
PC-3 prostate = system: PC-3 prostate
RXF 393 renal = system: RXF 393 renal
SK-MEL-2 melanoma = system: SK-MEL-2 melanoma
SNB-75 CNS = system: SNB-75 CNS
T-47D breast = system: T-47D breast

Measured: TGI

CCCCc1c2c(nc3c1CCC/C3=C\c1ccccc1)/C(=C/c1ccccc1)CCC2
not listed: A498 renal | BT-549 breast | DU-145 prostate | HOP-92 NSCLC | HS 578T breast | MCF7 breast | MDA-MB-231 breast | MDA-MB-435 | MDA-N | NCI/ADR-RES ovarian | OVCAR-4 ovarian | OVCAR-5 ovarian | PC-3 prostate | RXF 393 renal | SK-MEL-2 melanoma | SNB-75 CNS | T-47D breast
> 100 µM: all other assays above

O=C(O)c1ccc2c(c1)CC1(C2)Cc2cc3c(cc2C1=O)CCC3 (stereo not given)
not listed: DMS 114 small cell lung | DMS 273 small cell lung | KM20L2 colon | LXFL 529 NSCLC | M19-MEL melanoma | XF 498 CNS
> 100 µM: all other assays above
